# Source: patent publication US20090298903A1, “USE OF TETRAMIC ACID DERIVATIVES FOR INSECT CONTROL” (priority 2006, published 2009)
# How the values were obtained:
# Format in all cases: in vivo
# [1] = tested on: oriental fruit moth (Laspeyresia molesta); test: Example 28: peach trees against oriental fruit moth; conditions: 41 d after treatment, Pyrifroxyfen (35 WP) 123, Acetamiprid (30 SG) 168, (I-4) (150 OD) 153 g a.s./ha
# Protocol: Approx. 10-year-old peach trees are treated, in four replications, against the oriental fruit moth (Laspeyresia molesta). The application is carried out with a knapsack sprayer which is operated with pressurized air. Here, the active substance (I-4) (150 OD) is tested against the commercial standards Pyriproxyfen (35 WP) and Acetamiprid (30 SG) at the specified application rates. The water application rate is 935 l/ha.
# The test is evaluated 41 days after the treatment by scoring the destruction rate of the animals on the trees.
# Carpocapsa pomonella = test: Example 29: apple trees against Carpocapsa pomonella, fruit damage; conditions: application rate printed as g a.s./ha: Chlorpyrifos-methyl (25 WP) 0.1, (I-4) (240 SC + 0.1% Steffes Mero) 0.012
# Protocol: Approx. 15-year-old apple trees cv. “Golden Delicious” are treated, in four replications, against Carpocapsa pomonella. The application is carried out with an atomizer. Here, the active substance Example (I-4) (240 SC) in a tank mix together with 0.1% a.s. of the adjuvant Steffes Mero (rapeseed oil methyl ester) (733 1R) and the commercial standard Chlorpyrifos-methyl (25 WP) are tested at the specified application rates. The water application rate is 1052 l/ha. Two applications are carried out at an interval of 13 days.
# The test is evaluated 32 days after treatment 2 by scoring the fruit damage with the aid of the Abbott formula.
# [2] = tested on: apple capsid bug (Plesiocoris rugicollis); test: Example 1B: apple trees against apple capsid bug; conditions: 37 d after treatment, larvae on twigs, Deltamethrin (EC 025) 3.75, (I-4) (150 OD) 30 g a.s./ha/m crown level
# Protocol: Apple trees cv. “Holsteiner Cox” which are approximately 14 years old are treated, in 3 replications, against the apple capsid bug (Plesiocoris rugicollis). Here, the active substance Example (I-4) (150 OD) is tested at the specified application rate against the commercial standard Deltamethrin liquid (EC 025) at the specified application rate. The application is carried out with a knapsack sprayer. Here, the treatment is effected with a water application rate of 500 l/ha/m crown level.
# The test is evaluated 37 days after the treatment by scoring the destruction of the larvae on the twigs with the aid of the Abbott method.
# [3] = tested on: Leptinotarsa decemlineata; test: Example 23: potatoes against Leptinotarsa decemlineata
# Protocol: Plots approx. 10 m^2 in size which are planted with potatoes “Quarta” are treated, in three replications, against Leptinotarsa decemlineata. The application is carried out with a knapsack sprayer operated with pressurized air. Here, the active substance Example (I-4) (240 SC), in a tank mix together with 0.2% a.s. rapeseed oil methyl ester (500 EW) and the commercial standard Deltamethrin (100 EC), is tested at the specified application rate. The water application rate is 300 l/ha.
# The test is evaluated 3, 8 and 20 days after the treatment by scoring the destruction rate of the animals (larvae) on the plants.
# Ceutorhynchus napi = test: Example 26-A: oilseed rape against Ceutorhynchus napi; conditions: 55 d after treatment, larvae, Deltamethrin (25 EC) 5, (I-4) (+ 0.2% rapeseed oil methyl ester) 72, Thiacloprid (OD 240) 72, Lambda-cyhalothrin 5 g a.s./ha
# Protocol: Plots approx. 25 m^2 in size which are planted with oilseed rape cv. “Artus” are treated, in four replications, against Ceutorhynchus napi. The application is carried out with a motor-operated knapsack sprayer. Here, the active substance Example (I-4), in a tank mix with 0.2% a.s. rapeseed oil methyl ester (500 EW) and the commercial standards Deltamethrin (25 EC), lambda-cyhalothrin (S100) and Thiacloprid (OD 240), is tested at the specified application rates. The water application rate is 250 l/ha.
# The test is evaluated 55 days after the treatment by scoring the destruction rate of the larvae on the plants.
# Rhagoletis cerasi = test: Example 21: cherry trees against Rhagoletis cerasi; conditions: 23 d after treatment 2, larvae on fruits, Dimethoate (400 EC) 200, (I-4) (150 OD) 75 g a.s./ha/m crown level
# Protocol: Cherry trees cv. “Van” which are approximately 26 years old are treated, in three replications, against Rhagoletis cerasi. The application is carried out with an atomizer. Here, the active substance Example (I-4) (150 OD) and the commercial standard dimethoate (400 EC) are applied at the specified application rates. Two applications are carried out at an interval of 6 days with a water application rate of 500 l/ha/m crown level.
# The test is evaluated 23 days after treatment 2 by scoring the destruction rates of the animals (larvae) on the fruits with the aid of the Abbott formula.
# Thrips tabaci [4] = test: Example 6: onions against Thrips tabaci; conditions: population on leaves
# Protocol: Plots 15 m^2 in size which are planted with onions are treated, in two replications, against Thrips tabaci. The application is effected with a knapsack sprayer which is operated with pressurized air. Here, the active substances Example (I-4), in a tank mix together with 0.2% a.s. rapeseed oil methyl ester (500 EW) and the commercial standard dimethoate and (380 EC), are tested at the specified application rates in a tank mix with 0.9% a.s. E-actipron (900 EC). The water application rate is 300 l/ha.
# The test was evaluated 43 and 62 days after the treatment by scoring the destruction rate of the population on the leaves.
# Caliothrips phaseoli = test: Example 3: courgettes against Caliothrips phaseoli; conditions: 8 d after treatment, nymphs on 5 leaves, Endosulfan (350 EC) 525, (I-4) (240 SC + 0.1% rapeseed oil methyl ester) 72 g a.s./ha
# Protocol: Plots approx. 22 m^2 in size which are planted with courgettes cv. “Italiana negra” are treated, in three replications, against Caliothrips phaseoli. The application is effected with a motor-driven knapsack sprayer. Here, the active substance Example (I-4) (240 SC), in a tank mix together with 0.1% a.s. rapeseed oil methyl ester (500 EW) and the commercial standard endosulfan (350 EC), is tested at the specified application rates. The water application rate is approx. 510 l/ha.
# The test is evaluated 8 days after the treatment by scoring the destruction of the animals (nymphs) on 5 leaves.
# Dasineura pyri = test: Example 19b): pear trees against Dasineura pyri; conditions: 9 d after treatment 2, larvae in rolled leaves, Endosulfan (350 EC) 472.5, (I-4) as 240 SC + Mero (0.1% rapeseed oil methyl ester) 120 g a.s./ha/m crown level
# Protocol: Fully-grown pear trees cv. “Conference” of crown height approx. 3.5 m are treated, in four replications, against Dasineura pyri. Here, the active substance Example (I-4) is tested as (150 OD) and (240 SC) together with 0.1% a.s. rapeseed oil methyl ester (Mero 733 1R) in a tank mix at the specified application rate against the commercial standard Endosulfan (350 EC) at the specified application rate. The application is carried out with a spray diffuser. Here, the treatment is effected with a water application rate of 1000 l/ha/m crown level. Two applications are carried out at an interval of 7 days.
# The test is evaluated 9 days after treatment 2 by scoring the destruction rate of the larvae in the rolled leaves, using the Abbott method.
# Dasineura mali = test: Example 19 a): apple trees against Dasineura mali; conditions: 59 d after treatment; larvae, apple twigs; Pirimicarb (50 WG) 125, (I-4) (100 OD) 72 g a.s./ha/m crown level
# Protocol: Apple trees cv. “Elan” which are approximately 16 years old are treated, in 3 replications, against the Dasineura mali. Here, the active substance Example (I-4) (100 OD) is tested at the specified application rate against the commercial standard and Pirimicarb (50 WG) at the specified application rate. The application is carried out with a spray diffuser. Here, the treatment is effected with a water application rate of 1000 l/ha/m crown level.
# The test is evaluated 59 days after the treatment by scoring the destruction of the larvae on the basis of the adults present on the twigs with the aid of the Abbott method.
# Thrips tabaci [5] = test: Example 11: dwarf beans against Thrips tabaci
# Protocol: Plots approx. 26 m^2 in size which are planted with dwarf beans are treated 16 days after emergence against Thrips tabaci, in four replications. The application is carried out with a knapsack sprayer which is operated with pressurized air. Here, the active substances Example (I-2) (240 SC) (I-4) (240 SC) and Example (I-9) (240 SC), in a tank mix with 0.1% a.s. rapeseed oil methyl ester (500 EW), are tested against the commercial standard Profenofos (720 EC) at the specified application rates. The water application rate is 1000 l/ha. Two applications are carried out at an interval of 10 days.
# The test is evaluated 5 and 11 days after the first treatment by scoring the destruction rate of the nymphs on the leaves.
# [6] = tested on: flea beetles (Phyllotreta sp.); test: Example 24: aubergines against flea beetles; conditions: 7 d after the last of four treatments, larvae, Imidacloprid (100 SL) 100, (I-4) (100 OD) 70, Profenofos (500 EC) 500 g a.s./ha
# Protocol: Plots approx. 12 m^2 in size which are planted with aubergines cv. “DLP” are treated, in three replications, against flea beetles (Phyllotreta sp.). The application is carried out with a knapsack sprayer which is operated with pressurized air. Here, the active substance Example (I-4) (100 OD) and the commercial standards Imidacloprid (100 SL) and Profenofos (500 EC) are applied at the specified application rates. Four applications are carried out at intervals of 7, 8 and 10 days, with a water application rate of 750 l/ha.
# The test is evaluated 7 days after the last treatment by scoring the destruction rate of the larvae on the plants.
# Empoasca biguttula = test: Example 16: aubergines against Empoasca biguttula
# Protocol: Plots 10 m^2 in size which are planted with aubergines are treated, in three replications, against Empoasca biguttula. The application is carried out with a knapsack sprayer which is operated with pressurized air. Here, the active substance Example (I-4) (150 OD) is tested against the commercial standards Imidacloprid (SL 100) and Profenofos (500 EC) at the specified application rates. Two applications are carried out at an interval of 7 days. The water application rate is 750 l/ha.
# The test is evaluated 2, 6 and 13 days after the first treatment by scoring the destruction rates of the animals (nymphs) on the plants.
# Pegomya spp. = test: Example 17: winter wheat against Pegomya spp.; conditions: 3 days after the last of two treatments (interval 7 days), larvae, Thiacloprid (240 OD) 72, (I-4) (240 SC + 0.2% rapeseed oil methyl ester) 96 g a.s./ha
# Protocol: Plots approx. 25 m^2 in size which are planted with winter wheat cv. “Capfern” are treated, in four replications, against Pegomya spp. The application is carried out with a knapsack sprayer which is operated with pressurized air. Here, the active substance Example (I-4) (240 SC), in a tank mix with 0.2% a.s. rapeseed oil methyl ester (500 EW) and the commercial standard Thiacloprid (240 OD), is tested at the specified application rates. Two applications are carried out at an interval of 7 days. The water application rate is 350 l/ha.
# The test is evaluated 3 days after the last treatment by scoring the destruction rate of the larvae on the plants.
compound,measurement,setting,value
C/C(=N\C#N)N(C)Cc1ccc(Cl)nc1 [Acetamiprid],Efficacy (% Abbott) 41 d,[1],35.8 % Abbott
COP(=S)(OC)Oc1nc(Cl)c(Cl)cc1Cl [Chlorpyrifos-methyl],Efficacy (% Abbott) 32 d after treatment 2,Carpocapsa pomonella,66.7 % Abbott
CC1(C)[C@H](C(=O)O[C@H](C#N)c2cccc(Oc3ccccc3)c2)[C@@H]1C=C(Br)Br [Deltamethrin],Efficacy (%) Abbott 37 d,[2],78%
same,Efficacy (% Abbott) 3 d,"[3]; 3 d after treatment, larvae, Deltamethrin (100 EC) 75, (I-4) (240 SC + 0.2% rapeseed oil methyl ester) 72 g a.s./ha",100 % Abbott
same,Efficacy (% Abbott) 8 d,"[3]; 8 d after treatment, Deltamethrin 75, (I-4) 72 g a.s./ha",100 % Abbott
same,Efficacy (% Abbott) 20 d,"[3]; 20 d after treatment, Deltamethrin 75, (I-4) 72 g a.s./ha",100 % Abbott
same,Efficacy (% Abbott) 55 d,Ceutorhynchus napi,77.1 % Abbott
"CNC(=O)CSP(=S)(OC)OC [Dimethoate, dimethoate]",Efficacy (% Abbott) 23 d,Rhagoletis cerasi,100 % Abbott
same,Efficacy (% Abbott) 43 d,"Thrips tabaci [4]; 43 d after treatment, Dimethoate (380 EC + 0.9% E-actipron) 380, (I-4) (+ 0.2% rapeseed oil methyl ester) 96 g a.s./ha",64.5 % Abbott
same,Efficacy (% Abbott) 62 d,"Thrips tabaci [4]; 62 d after treatment, Dimethoate 380, (I-4) 96 g a.s./ha",74.8 % Abbott
"O=S1OCC2C(CO1)C1(Cl)C(Cl)=C(Cl)C2(Cl)C1(Cl)Cl (stereo not shown) [Endosulfan, endosulfan]",Efficacy (% Abbott) 8 d,Caliothrips phaseoli,67.0 % Abbott
same,Efficacy (% Abbott) 9 d,Dasineura pyri,71.6 % Abbott
Cc1nc(N(C)C)nc(OC(=O)N(C)C)c1C [Pirimicarb],Efficacy (%) Abbott 59 d,Dasineura mali,0%
CCCSP(=O)(OCC)Oc1ccc(Br)cc1Cl (stereo not shown) [Profenofos],Efficacy (% Abbott) 5 d,"Thrips tabaci [5]; 5 d after first treatment, nymphs on leaves, Profenofos (720 EC) 1300, (I-9) 54, (I-2) 54, (I-4) 60 g a.s./ha, 240 SC + 0.1% rapeseed oil methyl ester",80 % Abbott
same,Efficacy (% Abbott) 11 d,"Thrips tabaci [5]; 11 d after first treatment (second application at 10 days), Profenofos 1300, (I-9) 54, (I-2) 54, (I-4) 60 g a.s./ha",75 % Abbott
same,Efficacy (% Abbott) 7 d,[6],84 % Abbott
same,Efficacy (% Abott) 2 d,"Empoasca biguttula; 2 d after first treatment, nymphs, Imidacloprid (SL 100) 30, (I-4) (150 OD) 50, Profenofos (500 EC) 500 g a.s./ha, two applications, interval 7 days",41.3 % Abott
same,Efficacy (% Abott) 6 d,"Empoasca biguttula; 6 d after first treatment, Imidacloprid 30, (I-4) 50, Profenofos 500 g a.s./ha",65.1 % Abott
same,Efficacy (% Abott) 13 d,"Empoasca biguttula; 13 d after first treatment, Imidacloprid 30, (I-4) 50, Profenofos 500 g a.s./ha",53.8 % Abott
"CC(COc1ccc(Oc2ccccc2)cc1)Oc1ccccn1 (stereo not shown) [Pyrifroxyfen, Pyriproxyfen]",Efficacy (% Abbott) 41 d,[1],39.0 % Abbott
N#C/N=C1\SCCN1Cc1ccc(Cl)nc1 [Thiacloprid],Efficacy (% Abbott) 10 d,Pegomya spp.,100 % Abbott
same,Efficacy (% Abbott) 55 d,Ceutorhynchus napi,52.4 % Abbott
